We go through 1 compound from patent US5084462A, “4-quinoline carboxylic acid derivatives useful as immunosuppressive agents” (The Du Pont Merck Pharmaceutical Company, priority 1990, dated 1992).

Experiment [1] relates to human mixed lymphocyte reaction. In words: Human mixed lymphocyte reaction (3H-thymidine incorporation). The settings on record: Table 4, human PBMC of two donors, 6 days. In kind it is cell-based. The text has this: Contact sensitivity to DNFB has teen extensively studied and characterized in the mouse to determine the regulatory mechanisms involved in cell mediated immune responses (Claman, et al., Immunol Rev 50:105, 1980). This is an antigen-specific T-cell mediated inflammatory response that represents delayed-type hypersensitivity reactions seen in both humans and other mammals. The primary use of the human mixed lymphocyte reaction is for the determination of transplantation compatibility between the donor (graft) and the recipient (Park and Good, p. 71. In Yunis, et al., Tissue typing and organ transplantation. 1973 Academic Press Inc., N.Y.).
Blood was obtained by venipuncture from two nonrelated human donors. Peripheral blood mononuclear cells (PBMC) were isolated from these samples by using the Leuco Prep procedure (Becton-Dickinson). PBMC were washed twice in phosphate buffered saline (without calcium and magnesium) and the separate cell isolations were adjusted to the appropriate concentrations in media (RPMI 1640) supplemented with 10% human AB serum and […] gentamicin. Cells from donor A (2×10^5) were incubated with cells from donor B (2×10^5) in 96 well round bottom microliter plates at 37° C., 5% CO2 for 6 days. Eighteen hours prior to harvesting cells from the plates, all wells were pulsed with 1 μCi of ^3 H-thymidine. Cells from the plates were harvested on day 6 and ^3 H-thymidine incorporation was determined using a scintillation counter.
On the technique in general: Uptake of a labelled nucleoside into DNA is a usual measure of proliferation.

The test system of experiment [2] is contact sensitivity response to 2,4-dinitrofluorobenzene (DNFB). In words: Contact sensitivity response to 2,4-dinitrofluorobenzene (DNFB) in mice. In kind it is in vivo, Balb/c female mice. As to the method:
This is an antigen-specific T-cell mediated inflammatory response that represents delayed-type hypersensitivity reactions seen in both humans and other mammals.
Balb/c female mice (.perspectiveto.20g, Charles River) were sensitized on the shaved abdomen with 25 μl of 0.5% 2,4-dinitrofluorobenzene ([…], Eastman Kodak Co.) in a vehicle of 4:1 acetone:olive oil on days 0 and 1. Mice were ear challenged with 20 μl of 0.2% DNFB in a vehicle of 4:1 acetone:olive oil on day 5. A constant area of the ears was measured immediately before challenge and 24 hours later with an engineer's micrometer. Ear swelling was expressed as the difference in ear thickness before and after challenge in units of 10^-4 inches±SEM. Percent suppression was calculated as: [formula] […] Negative controls were not sensitized on days 0 and 1 but were ear challenged on day 5. Ten mice were used per group.

For experiment [3], the system named is adjuvant-induced arthritis. Kind of experiment: Adjuvant-induced arthritis in rats. In kind it is in vivo, Male Lewis rats. The settings on record: for Non-Injected Hind-Paw Volume / % Suppression: day 18; for % Suppression: Table 5, non-injected hind paw. As to the method:
Rat adjuvant-induced arthritis represents a systemic inflammatory disease with bone and cartilage changes similar to that observed in rheumatoid arthritis, but in an accelerated time span (Pearson, Arth Rheum 7:80, 1964).
Male Lewis rats (Charles River) weighing 160-210 grams were injected subcutaneously with 0.1 ml of Freund's Complete Adjuvant containing 5 mg of M. butyricum/ml of paraffin oil (Difco Laboratories) into the plantar region of the right hind paw. Paraffin oil was injected for non-arthritic controls. Ten rats were used per group. Compounds were prepared in 0.25% Methocel® (Dow Chemical Co) with one drop of Tween® 80 per 10 ml of Methocel®. Animals were dosed every day beginning on the day of paw injection until day 18. The weight of each animal was recorded every other day beginning on the day of the paw injections. On day 18 the animals were weighed, and the non-injected hind paw volume was measured using a Ugo Basile Volume Differential Plethysmometer.

Broadly, the IC50 is the midpoint of a concentration-inhibition curve. The low end stands for higher potency, the high end for lower potency. As usually defined, the ED50 is the dose at which the effect has come halfway, by size or by number of responders.

As to `Cc1c(-c2ccc(-c3ccccc3)cc2)nc2cccc(Cl)c2c1C(=O)[O-].[Na+]` [Example 1, Sodium 2-(1,1'-Biphenyl-4-yl)-5-chloro-3-methyl-quinoline-4-carboxylate], in experiment [1], 9.6 nM corresponded to half-maximal inhibition (IC50). Also, the 50% effective dose (ED50) in experiment [2] (Mus musculus, po) worked out at 3.5 mg/kg; in experiment [3] (Rattus norvegicus, 432 h, Table 5 footnote, adjuvant-induced arthritis), 21 mg/kg. Besides, the inhibition in vivo at 0.4 mg/kg in experiment [2] (Mus musculus, po, 24 h, read-out: % Suppression, Table 2, ear swelling, 0.4 mg/kg oral) was determined as 11%. The inhibition in vivo at 2 mg/kg in experiment [2] (Mus musculus, po, 24 h, read-out: % Suppression, Table 2, ear swelling, 2.0 mg/kg oral) is 23.4%. In addition, the inhibition in vivo at 10 mg/kg in experiment [2] (Mus musculus, po, 24 h, read-out: % Suppression, Table 2, ear swelling, 10.0 mg/kg oral) worked out at 92.7%. In addition, the inhibition in vivo at 20 mg/kg in experiment [2] (Mus musculus, po, 24 h, read-out: % Suppression, Table 2, ear swelling, 20.0 mg/kg oral) was found to be 93.9%. Also, the “Ear Swelling (units ± SEM), increase in ear thickness from day 5 to day 6” value in experiment [2] (Table 2, 0.4 mg/kg oral) is on record as 66.05 ± 4.32 10^-4 inches; in experiment [2] (Table 2, 2.0 mg/kg oral), 56.94 ± 4.80 10^-4 inches; in experiment [2] (Table 2, 10.0 mg/kg oral), 6.10 ± 0.75 10^-4 inches; in experiment [2] (Table 2, 20.0 mg/kg oral), 5.20 ± 1.17 10^-4 inches. The “Weight Gain” value is -14.0 ± 4.2 g in experiment [3] (Table 5, 10 mg/kg daily to day 18); 2.8 ± 5.3 g in experiment [3] (Table 5, 17.5 mg/kg daily to day 18); 20.6 ± 6.3 g in experiment [3] (Table 5, 25.0 mg/kg daily to day 18). For the same compound, the “Non-Injected Hind-Paw Volume” value in experiment [3] (Table 5, 10 mg/kg daily) came to 1.87 ± 0.08 mL; in experiment [3] (Table 5, 17.5 mg/kg daily), 1.72 ± 0.08 mL; in experiment [3] (Table 5, 25.0 mg/kg daily), 1.34 ± 0.10 mL. Also, the “% Suppression” value was determined as 1.4% in experiment [3] (10 mg/kg daily), 20.8% in experiment [3] (17.5 mg/kg daily) and 70.6% in experiment [3] (25.0 mg/kg daily).
